# Patent publication US10781158B2, “Methods of protecting an organ using tetrahydrocurcumin and phosphatidylcholine” (Bhupinder Singh, priority 2014, dated 2020)
# “And” between values parts separate entries of the source, which are not always exact repeats. Equal entries are not always repeated.
# How the values were obtained:
# 5/6 nephrectomy rats [1] = experiment: Tail blood pressure measurement in 5/6 nephrectomy CKD rats; type: in vivo, Sprague-Dawley rats; design: Diastolic tail BP: unit not given here
# Text: (§1) For induction of CKD via nephron mass reduction, Sprague-Dawley rats underwent partial left nephrectomy followed by total right nephrectomy one week later. CKD rats were then randomized to 1% THC diet with polyenylphosphatidylcholine (PPC, 3 g/1000 kcal) vs. regular chow. […] Tail blood pressure measurement and 24-hour urine collection were done within a week of study termination. After 9 weeks on special diet, blood and kidneys were collected for biochemical and histologic analyses.
# Rats were induced to have chronic kidney disease via nephron mass reduction, Sprague-Dawley rats underwent partial left nephrectomy followed by total right nephrectomy one week later. CKD rats were then randomized to 1% THC diet with polyenylphosphatidylcholine (PPC, 3 g/1000 kcal) vs. regular chow. The rats were then administered a dose of Buprenex, a narcotic, that can cause kidney damage.
# (§2) After inducing chronic kidney disease, the rats were then treated with a pharmaceutical formulation comprising tetrahydrocurcumin, or with a pharmaceutical formulation that had both tetrahydrocurcumin and curcumin. The control group consisted of five rats, ([…]), the rats with CKD (rat number 4, 15, 20, 23, 25, 31), rats with chronic kidney disease treated with tetrahydrocurcumin (rat number 8, 11, 12, 14, 19, 21, 18 and 27) and rats treated with a combination of tetrahydrocurcumin and curcumin (rat number 1, 2, 16, 24, 28, 7, 17, 29 and 30). The measurements for the average BUN, blood pressure, body weight, delta BUN, Hgb, and Heart weight/body weight for the four groups are shown in FIGS. 2A-2G.
# 5/6 nephrectomy rats [2] = experiment: Blood urea nitrogen (BUN), creatinine and creatinine clearance blood tests (kidney function) in CKD rats; type: in vivo, Sprague-Dawley rats; design: Change in BUN: unit not given here
# Text: as §1
# (§3) After 24 hours the rats were analyzed for proteinuria, Galectin-3, and C-reactive protein. Galectin-3 is a marker for cardiac fibrosis, and C-reactive protein is correlated with inflammation. Furthermore, a blood urea nitrogen test (BUN) was carried out with a creatinine and creatinine clearance blood test to evaluate the kidney functions and to look for nephrotoxicity.
# The blood urea nitrogen test (BUN) is primarily used with the creatinine test to evaluate kidney function and to help diagnose kidney disease. […] Therefore the pharmaceutical formulations comprising tetrahydrocurcumin with or without curcumin can be used to treat hypertension.
# 5/6 nephrectomy rats [3] = experiment: Proteinuria, 24-hour urine collection (total protein, urine protein/creatinine) in CKD rats; type: in vivo, Sprague-Dawley rats
# Text: as §1, §3
# 5/6 nephrectomy rats [4] = experiment: Plasma C-reactive protein (CRP, inflammation) in CKD rats; type: in vivo, Sprague-Dawley rats
# Text: as §1, §3
# 5/6 nephrectomy rats [5] = experiment: Galectin-3 (marker for cardiac fibrosis) in CKD rats; type: in vivo, Sprague-Dawley rats
# Protocol: as §3
# 5/6 nephrectomy rats [6] = experiment: Heart weight normalized to body weight (cardiac hypertrophy) in CKD rats; type: in vivo, Sprague-Dawley rats
# Protocol: (§4) The experimental groups included healthy controls, CTL n=5, non-treated CKD, n=6 and CKD/THC n=6. At time of randomization to regular chow vs. THC diet, average blood urea nitrogen (BUN) was similar between the CKD groups (63.5+10.5 vs. 66+16.5 mg/dL).
# as §2
# 5/6 nephrectomy rats [7] = experiment: Kidney fibrosis, image quantitative analysis of Trichrome stained kidney slides in CKD rats; type: in vivo, Sprague-Dawley rats; conditions: for Kidney slides Trichrome stain, Relative % area fibrosis: Table 10, relative to CTL Ave 1
# Text: as §1, §4
# [8] = previously shown; cited from earlier work
# [9] = at acidic and at physiological pH; cited from earlier work
# [10] = high dosages; cited from earlier work
# [11] = Table 1, CKD/THC group n = 6, 1% THC diet with PPC, 9 weeks, mean ± S.D.
# [12] = group AVE, CKD rats treated with THC
# [13] = Table 1, CKD/THC group n = 6, mean ± S.D.
# [14] = Table 4, group AVE (THC 8 rats, THC/curcumin 9 rats)
# [15] = Table 7, individual CKD rats, incl. rats 22 and 26
# [16] = individual rats (Rat#), CKD rats treated with THC
structure (smiles),measurement,setting,value
"COc1cc(CCC(=O)CC(=O)CCc2ccc(O)c(OC)c2)ccc1O [THC, tetrahydrocurcumin]",Diastolic blood pressure,5/6 nephrectomy rats [1]; [11],75.8 ± 12.8 mmHg
same,Systolic blood pressure,5/6 nephrectomy rats [1]; [11],116.5 ± 11.1 mmHg
same,Diastolic tail BP,"5/6 nephrectomy rats [1]; Table 5, group AVE",76.3
same,Systolic tail BP,"5/6 nephrectomy rats [1]; Table 5, group AVE",117.4 mmHg
same,Diastolic tail BP,"5/6 nephrectomy rats [1]; Table 5, individual CKD rats",95 and 69 and 60 and 78 and 81 and 67 and 77 and 83
same,Systolic tail BP,"5/6 nephrectomy rats [1]; Table 5, individual CKD rats",132 mmHg and 103 mmHg and 124 mmHg (2×) and 116 mmHg and 113 mmHg and 106 mmHg and 121 mmHg
same,Diastolic tail BP,5/6 nephrectomy rats [1]; [12],75.8
same,Diastolic tail BP,"5/6 nephrectomy rats [1]; individual rats (Rat#), 5/6 nephrectomy CKD rats treated with THC",95 and 69 and 60 and 81 and 67 and 83
same,BUN lower at termination compared to the non-treated CKD group,"5/6 nephrectomy rats [2]; CKD/THC group, 1% THC diet with PPC, 9 weeks, significantly lower",about 40%
same,BUN at termination,5/6 nephrectomy rats [2]; [13],52.1 ± 19.1 mg/dL
same,Plasma creatinine,5/6 nephrectomy rats [2]; [13],1.04 ± 0.22 mg/dL
same,Terminal BUN,"5/6 nephrectomy rats [2]; Table 3, individual CKD rats",44.9 mg/dL and 60.3 mg/dL and 80.6 mg/dL and 107.7 mg/dL and 69.9 mg/dL and 32.1 mg/dL and 32.6 mg/dL and 201.8 mg/dL and 62.3 mg/dL
same,Terminal Cr,"5/6 nephrectomy rats [2]; Table 3, individual CKD rats",0.76 mg/dL and 1.28 mg/dL and 1.25 mg/dL and 1.48 mg/dL and 1.19 mg/dL and 1.13 mg/dL and 1.01 mg/dL and 2.30 mg/dL and 0.81 mg/dL
same,CrCL,"5/6 nephrectomy rats [2]; Table 3, individual CKD rats, creatinine clearance",0.223 L/h/kg and 0.114 L/h/kg and 0.154 L/h/kg and 0.136 L/h/kg and 0.208 L/h/kg and 0.175 L/h/kg
same,Change in BUN,5/6 nephrectomy rats [2]; [14],−6.0
same,Terminal BUN,5/6 nephrectomy rats [2]; [14],61.3 mg/dL
same,Terminal BUN,"5/6 nephrectomy rats [2]; Table 4, individual CKD rats",44.9 mg/dL and 60.3 mg/dL and 80.6 mg/dL and 107.7 mg/dL and 32.1 mg/dL and 32.6 mg/dL and 69.9 mg/dL and 62.3 mg/dL
same,Change in BUN,"5/6 nephrectomy rats [2]; Table 4, individual CKD rats, terminal minus randomization",−13.6 and −6.2 and −15.9 and 31.6 and −28.7 and −14.7 and 3.4 and −4.3
same,CrCL,"5/6 nephrectomy rats [2]; Table 6, group AVE",0.168 L/h/kg
same,Terminal Cr,"5/6 nephrectomy rats [2]; Table 6, group AVE",1.11 mg/dL
same,Terminal Cr,"5/6 nephrectomy rats [2]; Table 6, individual CKD rats",0.76 mg/dL and 1.28 mg/dL and 1.25 mg/dL and 1.48 mg/dL and 1.13 mg/dL and 1.01 mg/dL and 1.19 mg/dL and 0.81 mg/dL
same,CrCL,"5/6 nephrectomy rats [2]; Table 6, individual CKD rats, creatinine clearance",0.223 L/h/kg and 0.114 L/h/kg and 0.154 L/h/kg and 0.136 L/h/kg and 0.208 L/h/kg and 0.175 L/h/kg
same,Terminal BUN,5/6 nephrectomy rats [2]; [15],44.9 mg/dL and 60.3 mg/dL and 80.6 mg/dL and 107.7 mg/dL and 69.9 mg/dL and 32.1 mg/dL and 32.6 mg/dL and 201.8 mg/dL and 62.3 mg/dL
same,Terminal Cr,5/6 nephrectomy rats [2]; [15],0.8 mg/dL (2×) and 1.3 mg/dL and 1.2 mg/dL (2×) and 1.5 mg/dL and 1.1 mg/dL and 1.0 mg/dL and 2.3 mg/dL
same,Change in BUN,"5/6 nephrectomy rats [2]; Table 8, group AVE of 6 rats",−13.9
same,Terminal BUN,"5/6 nephrectomy rats [2]; Table 8, group AVE of 6 rats",52.1 mg/dL
same,Change in BUN,"5/6 nephrectomy rats [2]; Table 8, individual CKD rats",−13.6 and −6.2 and −15.9 and −28.7 and −14.7 and −4.3
same,Terminal BUN,"5/6 nephrectomy rats [2]; Table 8, individual CKD rats",44.9 mg/dL and 60.3 mg/dL and 80.6 mg/dL and 32.1 mg/dL and 32.6 mg/dL and 62.3 mg/dL
same,CrCL,5/6 nephrectomy rats [2]; [12],0.175 L/h/kg
same,Terminal sCr,5/6 nephrectomy rats [2]; [12],1.04 mg/dL
same,CrCL,5/6 nephrectomy rats [2]; [16],0.223 L/h/kg and 0.114 L/h/kg and 0.154 L/h/kg and 0.208 L/h/kg and 0.175 L/h/kg
same,Proteinuria decreased compared to non-treated CKD animals,"5/6 nephrectomy rats [3]; CKD/THC group, significantly decreased",~50%
same,Urine protein/creatinine,5/6 nephrectomy rats [3]; [13],47.91 ± 15.42 mg/g
same,24 hr total proteinuria,"5/6 nephrectomy rats [3]; Table 3, individual CKD rats",638.5 mg and 612.7 mg and 355.6 mg and 537.7 mg and 613.8 mg and 410.1 mg
same,Uprot/Cr ratio,"5/6 nephrectomy rats [3]; Table 3, individual CKD rats",63.18 mg/g and 64.86 mg/g and 30.56 mg/g and 46.32 mg/g and 43.50 mg/g and 37.43 mg/g
same,24 hr total proteinuria,"5/6 nephrectomy rats [3]; Table 5, group AVE",528.07 mg
same,24 hr total proteinuria,"5/6 nephrectomy rats [3]; Table 5, individual CKD rats",638.50 mg and 612.75 mg and 355.61 mg and 537.69 mg and 613.82 mg and 410.08 mg
same,24 hr total proteinuria,5/6 nephrectomy rats [3]; [12],526.15 mg
same,Uprot/Cr ratio,5/6 nephrectomy rats [3]; [12],47.91 mg/g
same,24 hr total proteinuria,5/6 nephrectomy rats [3]; [16],638.50 mg and 612.75 mg and 355.61 mg and 613.82 mg and 410.08 mg
same,Uprot/Cr ratio,5/6 nephrectomy rats [3]; [16],63.18 mg/g and 64.86 mg/g and 30.56 mg/g and 43.50 mg/g and 37.43 mg/g
same,CRP,"5/6 nephrectomy rats [4]; Table 3, individual CKD rats",2.53 mg/mL and 3.22 mg/mL and 2.15 mg/mL and 4.38 mg/mL and 2.70 mg/mL and 3.43 mg/mL and 2.36 mg/mL and 1.19 mg/mL and 2.57 mg/mL
same,CRP,"5/6 nephrectomy rats [4]; Table 6, group AVE",2.92 mg/mL
same,CRP,"5/6 nephrectomy rats [4]; Table 6, individual CKD rats",2.53 mg/mL and 3.22 mg/mL and 2.15 mg/mL and 4.38 mg/mL and 3.43 mg/mL and 2.36 mg/mL and 2.70 mg/mL and 2.57 mg/mL
same,CRP,5/6 nephrectomy rats [4]; [12],2.71 mg/mL
same,CRP,5/6 nephrectomy rats [4]; [16],2.53 mg/mL and 3.22 mg/mL and 2.15 mg/mL and 3.43 mg/mL and 2.36 mg/mL and 2.57 mg/mL
same,Galectin-3,"5/6 nephrectomy rats [5]; Table 3, individual CKD rats",285.96 ng/mL and 450.48 ng/mL and 436.37 ng/mL and 768.79 ng/mL and 273.14 ng/mL and 182.38 ng/mL
same,Galectin-3,"5/6 nephrectomy rats [5]; Table 6, group AVE",442.95 ng/mL
same,Galectin-3,"5/6 nephrectomy rats [5]; Table 6, individual CKD rats",285.96 ng/mL and 450.48 ng/mL and 436.37 ng/mL and 768.79 ng/mL and 273.14 ng/mL
same,Galectin-3,5/6 nephrectomy rats [5]; [12],390.94 ng/mL
same,Galectin-3,5/6 nephrectomy rats [5]; [16],285.96 ng/mL and 450.48 ng/mL and 436.37 ng/mL
same,Heart wet weight normalized to body weight,5/6 nephrectomy rats [6]; [13],3.89 ± 0.61 g/kg
same,Heart wt,5/6 nephrectomy rats [6]; [14],1.068 g
same,Heart wt/body wt,5/6 nephrectomy rats [6]; [14],4.16 g/kg
same,Heart wt,"5/6 nephrectomy rats [6]; Table 4, individual CKD rats",1.169 g and 0.972 g and 1.165 g and 1.035 g and 0.854 g and 0.830 g and 1.530 g and 0.989 g
same,Heart wt/body wt,"5/6 nephrectomy rats [6]; Table 4, individual CKD rats",4.68 g/kg and 3.61 g/kg and 4.59 g/kg and 4.33 g/kg and 3.42 g/kg and 3.22 g/kg and 5.63 g/kg and 3.80 g/kg
same,Heart wt,"5/6 nephrectomy rats [6]; Table 8, group AVE of 6 rats",0.997 g
same,Heart wt/body wt,"5/6 nephrectomy rats [6]; Table 8, group AVE of 6 rats",3.89 g/kg
same,Heart wt,"5/6 nephrectomy rats [6]; Table 8, individual CKD rats",1.169 g and 0.972 g and 1.165 g and 0.854 g and 0.830 g and 0.989 g
same,Heart wt/body wt,"5/6 nephrectomy rats [6]; Table 8, individual CKD rats",4.68 g/kg and 3.61 g/kg and 4.59 g/kg and 3.42 g/kg and 3.22 g/kg and 3.80 g/kg
same,Kidney fibrosis from Trichrome stained slides: relative % area,"5/6 nephrectomy rats [7]; Table 1, CKD/THC group n = 6, mean ± S.D., CTL = 1",1.16 ± 0.24 relative % area
same,"Kidney slides Trichrome stain, Relative % area fibrosis",5/6 nephrectomy rats [7]; group Ave,1.1551
same,"Kidney slides Trichrome stain, Relative % area fibrosis",5/6 nephrectomy rats [7]; individual kidneys,1.396 and 1.321 and 1.345 and 0.8958 and 1.146 and 0.8269
same,Increase of plasma levels on co-administration with a lipid carrier such as PPC,[8],5 fold
same,Solubility in water,[9],poor solubility
same,Dosage at which relatively safe,[10],80 mgs/kg body weight
